Results on eight compounds are retold here after US20240016786A1, “GLUCOSIDASE INHIBITORS FOR THE TREATMENT AND PREVENTION OF PULMONARY INFECTIONS” (priority 2020, published 2024).

One data set deals with SARS-Cov-2 SA (B.1.351). The data set is described as follows: SARS-CoV-2 Virospot reduction assay (Viroclinics), Vero E6 cells. It counts as cell-based.
In data set [1] the test system is SARS-Cov-2 Germany/BavPat1/2020. The data set is described as above. It counts as cell-based. The protocol:
SARS-CoV-2 testing was carried out by the independent contract research organization Viroclinics, Netherlands, using the SARS—CoV-2 Virospot reduction assay. This is a high throughput assay to determine the IC50/IC90 (also termed EC50/EC90) of putative antiviral compounds as compared to other assay formats (such as traditional plaque count assays), and improved traceability from raw data to results. The assay measures drug or antibody-mediated reduction of virus propagation in cell monolayers, by virus-specific immunostaining and automated imaging of infected cells. Automated counting of the number of infected foci (i.e., “spots”) provides the raw data for IC50/IC90 calculations.
A serial dilution series of the test article is mixed with a fixed amount of virus and the virus/inhibitor is added to Vero E6 cells. Virus control wells without inhibitor and cell controls without drug and virus are included. Viral propagation is measured after 16-24 h incubation by TrueBlue immunostaining of infected cells and automated counting of viral “spots” (corresponding to area of viral growth and protein expression) and the IC50 value is calculated using 4 replicates.
Adherent cells were seeded in multi-well plates. Cell cultures were inoculated with a standardized amount of virus, in the absence and presence of serial compound dilutions, followed by 18-24 hours of incubation and an appropriate virus detection method (Immunostaining and count spots using a CTL Immunospot Image Analyser).
Virus signals were detected in presence of each compound concentration determine the 50% inhibitory concentration (IC50) and the 90% inhibitory concentration (IC90). The IC50 and IC90 values were calculated from the virus signals using the method described by Zielinska et al. (Virol J. 2005, 2(84)).
Remdesivir was used as a positive control.
Although cytotoxicity was not directly measured, the assay required intact cell monolayers to deliver a result. Severe cytotoxicity would be evident upon visual inspection and any deleterious effect of compound upon cell health is likely to negatively impact the formation of “spots”. This was not reported.

Data set [2] relates to SARS-CoV-2. In words: SARS-CoV-2 Virospot reduction assay, (strain not specified). Type of data set: cell-based. To be noted: for activity against strains of SARS-CoV-2: good in vitro activity e.g. IC50<100 μg/mL.
Another data set deals with SARS-Cov-2 UK (B.1.1.7). The data set is described as follows: SARS-CoV-2 Virospot reduction assay (Viroclinics), Vero E6 cells. It counts as cell-based.
The test system of data set [3] is SARS-CoV-2. The conditions noted are these: Huh7-hACE2 cells; cited from earlier work.
In data set [4] the test system is Huh7-hACE2 cells. The conditions noted are these: cited from earlier work.
Data set [5] can be described thus: Hygroscopicity observed on recovery of spray dried material. To be noted: on collection/recovery after spray drying. It counts as physicochemical.
The test system of data set [6] is Huh7-hACE2 cells. The conditions noted are these: cited from earlier work. The source holds these as a separate data set.
A further data set concerns SARS-CoV-1. To be noted: SARS-CoV-1 in vitro; cited from earlier work.
Another data set relates to cells in culture. To be noted: cited from earlier work.
The mark [7] stands for this setting: Severe acute respiratory syndrome coronavirus 2, Vero C1008, read-out: IC50.
Setting [8] is: Severe acute respiratory syndrome coronavirus 2, Vero C1008, read-out: IC90.
Setting [9] is: Severe acute respiratory syndrome coronavirus 2, Virospot reduction assay.

Converted amounts (≈) assume the structure as drawn. Like-named read-outs stand apart in the source and are kept apart here.

As a reminder, the IC50 is the concentration that inhibits the measured activity by half. The IC90 is the concentration needed for an effect of 90%. In the case of `OC[C@@H]1[C@@H](O)[C@H](O)[C@@H](O)CN1CCCCCOCC12CC3CC(CC(C3)C1)C2` [AMP-DNM, N-adamantanemethyloxypentyl-1-deoxynojirimycin], the IC50 in the data set with SARS-Cov-2 SA (B.1.351) stood at 2.7 µg/mL (≈ 6.79 µM); in [1], 8.3 µg/mL (≈ 20.9 µM); with SARS-Cov-2 UK (B.1.1.7), 7.7 µg/mL (≈ 19.4 µM). Also, the values for the concentration for an effect of 90% (IC90) (in the data set with SARS-Cov-2 SA (B.1.351); in [1]; in the data set with SARS-Cov-2 UK (B.1.1.7)) were 24.8 µg/mL (≈ 62.4 µM), 28.6 µg/mL (≈ 71.9 µM) and 34.4 µg/mL (≈ 86.5 µM), respectively. The “activity against strains of SARS-CoV-2” value in the data set on SARS-CoV-2 [2] is listed as “active against at least three strain”.

With `C[C@H]1O[C@H](O[C@H]2[C@H](O)[C@@H](O)[C@@H](O[C@H]3[C@H](O)[C@@H](O)C(O)O[C@@H]3CO)O[C@@H]2CO)[C@H](O)[C@@H](O)[C@@H]1N[C@H]1C=C(CO)[C@@H](O)[C@H](O)[C@H]1O` (stereo partly drawn) [Acarbose], the IC50 (with SARS-Cov-2 SA (B.1.351) (setting [7]); in data set [1] (setting [7]); with SARS-Cov-2 UK (B.1.1.7) (setting [7])) was > 200 µg/mL each time. Besides, the IC90 (with SARS-Cov-2 SA (B.1.351) (setting [8]); in data set [1] (setting [8]); with SARS-Cov-2 UK (B.1.1.7) (setting [8])) was > 200 µg/mL in each case.

What is called EC50 is the concentration needed to bring the measured effect to its halfway point. Consider `CCCC(=O)O[C@H]1CN2CC[C@H](O)[C@@H]2[C@@H](O)[C@@H]1O` [Celgosivir (6-O-butanoylcastanospermine), 6-O-butanoylcastanospermine], for which the IC50 (in the data set with SARS-Cov-2 SA (B.1.351) (setting [7]); in data set [1] (setting [7]); in the data set with SARS-CoV-2 [2] (setting [9]); in the data set with SARS-Cov-2 UK (B.1.1.7) (setting [7])) was > 200 µg/mL throughout. In addition, the concentration for an effect of 90% (IC90) (with SARS-Cov-2 SA (B.1.351) (setting [8]); in data set [1] (setting [8]); with SARS-Cov-2 UK (B.1.1.7) (setting [8])) was > 200 µg/mL throughout. Besides, in the data set with SARS-CoV-2 [3], the EC50 was 1 ± 0.2 µM. The “lack of cytotoxicity up to the highest concentrations tested” value with Huh7-hACE2 cells [4] (viable nuclei, Huh7-hACE2 cells) is 500 µM.

With `OCCN1C[C@H](O)[C@@H](O)[C@H](O)[C@H]1CO` [Glyset (Miglitol), miglitol], the IC50 with SARS-Cov-2 SA (B.1.351) (setting [7]) is 90 µg/mL (≈ 434 µM); in data set [1] (setting [7]), > 200 µg/mL; with SARS-Cov-2 UK (B.1.1.7) (setting [7]) it was > 200 µg/mL. In addition, the IC90 (with SARS-Cov-2 SA (B.1.351) (setting [8]); in [1] (setting [8]); in the data set on SARS-Cov-2 UK (B.1.1.7) (setting [8])) was > 200 µg/mL in each case. Also, the hygroscopicity result in data set [5] is reported as “extremely hygroscopic”. Further, the “activity against strains of SARS-CoV-2” value in the data set on SARS-CoV-2 [2] is “active against at least one strain”.

For `CC(C)(C)NC(=O)N(CCCCCCN1C[C@H](O)[C@@H](O)[C@H](O)[C@H]1CO)C1CCCCC1` [IHVR-19029, 3-tert-butyl-1-cyclohexyl-1-[6-[(2R,3R,4R,5S)-3,4,5-trihydroxy-2-(hydroxymethyl)piperidin-1-yl]hexyl]urea], the results for the IC50 (in the data set on SARS-Cov-2 SA (B.1.351) (setting [7]); in data set [1] (setting [7]); with SARS-Cov-2 UK (B.1.1.7) (setting [7])) were 5.5 µg/mL (≈ 12.4 µM), 48.5 µg/mL (≈ 109 µM) and 58.5 µg/mL (≈ 132 µM), respectively. Further, the IC90 (with SARS-Cov-2 SA (B.1.351) (setting [8]); in [1] (setting [8]); with SARS-Cov-2 UK (B.1.1.7) (setting [8])) was > 200 µg/mL in each case. For the same compound, the “activity against strains of SARS-CoV-2” value in the data set with SARS-CoV-2 [2] is given as “active against at least three strain”.

What is called CC50 is the concentration that lowers cell viability or growth by half. Turning to `CCCCN1C[C@H](O)[C@@H](O)[C@H](O)[C@H]1CO` [Miglustat (NB-DNJ), N-butyl-1-deoxynojirimycin], the CC50 in the data set with Huh7-hACE2 cells [6] is > 1000 µM. In addition, the EC50 with SARS-CoV-1 is ~100 µg/mL (≈ 456 µM); in the data set on SARS-CoV-2 [3], 19.9 ± 3.4 µM. The IC50 in the data set with SARS-Cov-2 SA (B.1.351) is 15.0 µg/mL (≈ 68.4 µM); in the data set with SARS-Cov-2 SA (B.1.351) (setting [7]), 19.2 µg/mL (≈ 87.6 µM); in [1] (setting [7]) it was > 200 µg/mL; with SARS-Cov-2 UK (B.1.1.7) (setting [7]) it was > 200 µg/mL. The IC90 (in the data set on SARS-Cov-2 SA (B.1.351) (setting [8]); in [1] (setting [8]); with SARS-Cov-2 UK (B.1.1.7) (setting [8])) was > 200 µg/mL throughout. For the same compound, the cytotoxicity result with cells in culture is listed as “little cytotoxicity”. Besides, in the data set on Huh7-hACE2 cells [4], the “lack of cytotoxicity up to the highest concentrations tested” value was 200 µM. Besides, the “activity against strains of SARS-CoV-2” value in the data set with SARS-CoV-2 [2] was “active against at least one strain”.

With `[N-]=[N+]=Nc1ccc(NCCCCCCN2C[C@H](O)[C@@H](O)[C@H](O)[C@H]2CO)c([N+](=O)[O-])c1` [NAP-DNJ, N-(6′-[4″-azido-2″-nitrophenylamino]hexyl)-1-deoxynojirimycin], the IC50 in the data set with SARS-Cov-2 SA (B.1.351) (setting [7]) was 0.1 µg/mL (≈ 0.236 µM); in data set [1] (setting [7]), 1.4 µg/mL (≈ 3.3 µM); with SARS-CoV-2 [2] (setting [9]), < 10 µg/mL; in the data set with SARS-Cov-2 UK (B.1.1.7) (setting [7]) it was 1.7 µg/mL (≈ 4.01 µM). In addition, the IC90 with SARS-Cov-2 SA (B.1.351) (setting [8]) is 5.7 µg/mL (≈ 13.4 µM); in data set [1] (setting [8]), 10.2 µg/mL (≈ 24 µM); in the data set on SARS-CoV-2 [2] (setting [9]), < 40 µg/mL; with SARS-Cov-2 UK (B.1.1.7) (setting [8]), 7.9 µg/mL (≈ 18.6 µM). Also, the “activity against strains of SARS-CoV-2” value with SARS-CoV-2 [2] is “active against at least three strain”.

For the compound `OCC(CO)N[C@H]1C[C@](O)(CO)[C@@H](O)[C@H](O)[C@H]1O` [Voglibose], the figures for the IC50 (in the data set on SARS-Cov-2 SA (B.1.351) (setting [7]); in data set [1] (setting [7]); in the data set on SARS-Cov-2 UK (B.1.1.7) (setting [7])) were 91.2 µg/mL (≈ 341 µM), > 200 µg/mL and > 200 µg/mL, respectively. In addition, the IC90 (with SARS-Cov-2 SA (B.1.351) (setting [8]); in [1] (setting [8]); with SARS-Cov-2 UK (B.1.1.7) (setting [8])) was > 200 µg/mL throughout. Moreover, in the data set with SARS-CoV-2 [2], the “activity against strains of SARS-CoV-2” value is “active against at least one strain”.
